# According to PubChem BioAssay (NCI):
# “And” between values parts separate entries of the source, which are not always exact repeats. Identical values can stand only once.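 Values below derive from 48-hour exposures of cells grown in 96-well plates, with endpoints linearly interpolated between the two concentrations bracketing the appropriate inhibition level. GI50 = concentration required for 50% inhibition of growth. Definition used: TGI = concentration required for complete inhibition of growth.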
# Experiments:
# Test in all cases: NCI-60 cell line screen, 48 h
# [1] = tested on: HT29 colon
# [2] = tested on: HCT-15 colon
# [3] = tested on: CCRF-CEM leukemia
# [4] = tested on: HOP-62 NSCLC
# [5] = tested on: HCT-116 colon
# [6] = tested on: CAKI-1 renal
# [7] = tested on: DU-145 prostate
# [8] = tested on: MDA-MB-231 breast
# [9] = tested on: COLO 205 colon
# [10] = tested on: SK-MEL-5 melanoma
# [11] = tested on: OVCAR-4 ovarian
# [12] = tested on: A498 renal
# [13] = tested on: 786-0 renal
# [14] = tested on: UACC-257 melanoma
# [15] = tested on: NCI/ADR-RES ovarian
# [16] = tested on: SF-268 CNS
# [17] = tested on: T-47D breast
# [18] = tested on: HCC-2998 colon
# [19] = tested on: A549 NSCLC
# [20] = tested on: KM12 colon
# [21] = tested on: SR leukemia
# [22] = tested on: NCI-H226 lung
# [23] = tested on: RXF 393 renal
# [24] = tested on: HOP-92 NSCLC
# [25] = tested on: MOLT-4 leukemia
# [26] = tested on: NCI-H23 lung
# [27] = tested on: SK-MEL-28 melanoma
# [28] = tested on: TK-10 renal
# [29] = tested on: SNB-75 CNS
# [30] = tested on: OVCAR-8 ovarian
# [31] = tested on: U251 CNS
# [32] = tested on: SNB-19 CNS
# [33] = tested on: EKVX NSCLC
# [34] = tested on: MDA-MB-435
# [35] = tested on: NCI-H460 lung
# [36] = tested on: PC-3 prostate
# [37] = tested on: BT-549 breast
# [38] = tested on: RPMI-8226 leukemia
# [39] = tested on: LOX IMVI melanoma
# [40] = tested on: IGROV1 ovarian
# [41] = tested on: HL-60(TB) leukemia
# [42] = tested on: MCF7 breast
# [43] = tested on: SN12C renal
# [44] = tested on: HS 578T breast
# [45] = tested on: MALME-3M melanoma
# [46] = tested on: UO-31 renal
# [47] = tested on: NCI-H522 lung
# [48] = tested on: ACHN renal
# [49] = tested on: SK-OV-3 ovarian
# [50] = tested on: SK-MEL-2 melanoma
# [51] = tested on: SF-295 CNS
# [52] = tested on: M14 melanoma
# [53] = tested on: SF-539 CNS
# [54] = tested on: SW-620 colon
# [55] = tested on: K-562 leukemia
# [56] = tested on: OVCAR-3 ovarian
# [57] = tested on: OVCAR-5 ovarian
# [58] = tested on: UACC-62 melanoma
structure (smiles),measurement,setting,value
CCN(CC)CCC(CNc1c2ccc([N+](=O)[O-])cc2nc2cc(OC)c(OC)cc12)c1ccccc1 (stereo not given),GI50,[1],40.5 nM and 28.9 nM
same,TGI,[1],239 nM and 100 nM
same,GI50,[2],738 nM and 1030 nM
same,TGI,[2],2140 nM and 3100 nM
same,GI50,[3],1190 nM and 1700 nM
same,TGI,[3],7290 nM and 10100 nM
same,GI50,[4],284 nM and 226 nM
same,TGI,[4],1230 nM and 1100 nM
same,GI50,[5],89.8 nM and 47.2 nM
same,TGI,[5],1140 nM and 491 nM
same,GI50,[6],1680 nM and 1580 nM
same,TGI,[6],3780 nM and 3760 nM
same,GI50,[7],134 nM and 58.2 nM
same,TGI,[7],1040 nM and 301 nM
same,GI50,[8],174 nM and 178 nM
same,TGI,[8],627 nM and 730 nM
same,GI50,[9],152 nM and 89.5 nM
same,TGI,[9],448 nM and 299 nM
same,GI50,[10],445 nM
same,TGI,[10],1470 nM
same,GI50,[11],271 nM and 228 nM
same,TGI,[11],1030 nM and 863 nM
same,GI50,[12],1690 nM and 1190 nM
same,TGI,[12],3120 nM and 2520 nM
same,GI50,[13],1070 nM and 671 nM
same,TGI,[13],2540 nM and 1930 nM
same,GI50,[14],410 nM and 365 nM
same,TGI,[14],1430 nM and 1300 nM
same,GI50,[15],1530 nM and 1720 nM
same,TGI,[15],5100 nM and 5070 nM
same,GI50,[16],238 nM and 109 nM
same,TGI,[16],1290 nM and 573 nM
same,GI50,[17],822 nM and 541 nM
same,TGI,[17],2970 nM and 2610 nM
same,GI50,[18],138 nM and 114 nM
same,TGI,[18],348 nM and 284 nM
same,GI50,[19],177 nM and 132 nM
same,TGI,[19],401 nM and 541 nM
same,GI50,[20],276 nM and 105 nM
same,TGI,[20],1130 nM and 542 nM
same,GI50,[21],37.9 nM and 57 nM
same,TGI,[21],521 nM and 3570 nM
same,GI50,[22],260 nM and 329 nM
same,TGI,[22],869 nM and 1470 nM
same,GI50,[23],541 nM and 228 nM
same,TGI,[23],1770 nM and 662 nM
same,GI50,[24],258 nM and 80.9 nM
same,TGI,[24],850 nM and 404 nM
same,GI50,[25],317 nM and 444 nM
same,TGI,[25],2410 nM and 5930 nM
same,GI50,[26],292 nM and 287 nM
same,TGI,[26],1230 nM and 1290 nM
same,GI50,[27],347 nM and 278 nM
same,TGI,[27],1230 nM and 831 nM
same,GI50,[28],1040 nM and 485 nM
same,TGI,[28],2270 nM and 1620 nM
same,GI50,[29],330 nM and 673 nM
same,TGI,[29],1620 nM and 2150 nM
same,GI50,[30],450 nM and 166 nM
same,TGI,[30],1870 nM and 978 nM
same,GI50,[31],294 nM and 203 nM
same,TGI,[31],1130 nM and 1220 nM
same,GI50,[32],214 nM and 177 nM
same,TGI,[32],1240 nM
same,GI50,[33],335 nM and 264 nM
same,TGI,[33],1380 nM and 1130 nM
same,GI50,[34],161 nM and 148 nM
same,TGI,[34],311 nM and 319 nM
same,GI50,[35],118 nM and 52.5 nM
same,TGI,[35],1050 nM and 631 nM
same,GI50,[36],305 nM and 209 nM
same,TGI,[36],1010 nM and 980 nM
same,GI50,[37],1490 nM and 740 nM
same,TGI,[37],3780 nM and 2000 nM
same,GI50,[38],272 nM and 63.8 nM
same,TGI,[38],1150 nM and 411 nM
same,GI50,[39],568 nM and 527 nM
same,TGI,[39],1860 nM
same,GI50,[40],405 nM and 290 nM
same,TGI,[40],1660 nM and 1020 nM
same,GI50,[41],1820 nM and 2400 nM
same,TGI,[41],3880 nM and 5120 nM
same,GI50,[42],36.3 nM and 42.8 nM
same,TGI,[42],905 nM and 1230 nM
same,GI50,[43],229 nM and 218 nM
same,TGI,[43],1220 nM and 1490 nM
same,GI50,[44],528 nM and 272 nM
same,TGI,[44],2880 nM and 1200 nM
same,GI50,[45],201 nM and 191 nM
same,TGI,[45],454 nM and 479 nM
same,GI50,[46],1100 nM and 956 nM
same,TGI,[46],2430 nM and 2600 nM
same,GI50,[47],345 nM and 166 nM
same,TGI,[47],1460 nM and 435 nM
same,GI50,[48],553 nM and 518 nM
same,TGI,[48],2070 nM and 2060 nM
same,GI50,[49],844 nM and 695 nM
same,TGI,[49],2170 nM and 2550 nM
same,GI50,[50],229 nM and 81.6 nM
same,TGI,[50],609 nM and 253 nM
same,GI50,[51],1090 nM and 930 nM
same,TGI,[51],2490 nM and 2650 nM
same,GI50,[52],335 nM and 305 nM
same,TGI,[52],1400 nM and 1230 nM
same,GI50,[53],380 nM and 423 nM
same,TGI,[53],1460 nM and 1640 nM
same,GI50,[54],145 nM and 72.7 nM
same,TGI,[54],1100 nM and 763 nM
same,GI50,[55],142 nM and 146 nM
same,TGI,[55],1250 nM and 3850 nM
same,GI50,[56],269 nM and 92.7 nM
same,TGI,[56],1010 nM and 335 nM
same,GI50,[57],487 nM and 755 nM
same,TGI,[57],1930 nM and 2300 nM
same,GI50,[58],542 nM and 696 nM
same,TGI,[58],1910 nM and 2010 nM
CCOc1ccc(/C=N/Nc2cc(C)nc3ccc(Cl)cc23)cc1,GI50,[1],1900 nM
same,TGI,[1],3470 nM
same,GI50,[2],1550 nM
same,TGI,[2],2940 nM
same,GI50,[3],1470 nM
same,TGI,[3],3760 nM
same,GI50,[4],2310 nM
same,TGI,[4],6530 nM
same,GI50,[6],1780 nM
same,TGI,[6],3200 nM
same,GI50,[7],1820 nM
same,TGI,[7],3380 nM
same,GI50,[8],1830 nM
same,TGI,[8],3380 nM
same,GI50,[9],1910 nM
same,TGI,[9],3470 nM
same,GI50,[10],1720 nM
same,TGI,[10],3090 nM
same,GI50,[11],1790 nM
same,TGI,[11],3510 nM
same,GI50,[12],1700 nM
same,TGI,[12],3450 nM
same,GI50,[13],1570 nM
same,TGI,[13],3030 nM
same,GI50,[14],1810 nM
same,TGI,[14],3320 nM
same,GI50,[15],1900 nM
same,TGI,[15],3860 nM
same,GI50,[16],2050 nM
same,TGI,[16],3900 nM
same,GI50,[17],1940 nM
same,TGI,[17],3800 nM
same,GI50,[18],2190 nM
same,TGI,[18],3700 nM
same,GI50,[19],2000 nM
same,TGI,[19],3720 nM
same,GI50,[20],1890 nM
same,TGI,[20],3650 nM
same,GI50,[21],1120 nM
same,TGI,[21],3500 nM
same,GI50,[22],1850 nM
same,TGI,[22],3620 nM
same,GI50,[23],1660 nM
same,TGI,[23],3060 nM
same,GI50,[24],2100 nM
same,TGI,[24],7080 nM
same,GI50,[25],1890 nM
same,TGI,[25],3850 nM
same,GI50,[26],1760 nM
same,TGI,[26],3320 nM
same,GI50,[27],1780 nM
same,TGI,[27],3190 nM
same,GI50,[28],1910 nM
same,TGI,[28],3370 nM
same,GI50,[29],1860 nM
same,TGI,[29],3640 nM
same,GI50,[30],2340 nM
same,TGI,[30],5190 nM
same,GI50,[31],1910 nM
same,TGI,[31],3380 nM
same,GI50,[32],2370 nM
same,TGI,[32],5070 nM
same,GI50,[33],2180 nM
same,TGI,[33],5250 nM
same,GI50,[34],1750 nM
same,TGI,[34],3260 nM
same,GI50,[35],2060 nM
same,TGI,[35],4270 nM
same,GI50,[36],1510 nM
same,TGI,[36],3140 nM
same,GI50,[37],1610 nM
same,TGI,[37],3150 nM
same,GI50,[38],1940 nM
same,TGI,[38],4320 nM
same,GI50,[39],1730 nM
same,TGI,[39],3140 nM
same,GI50,[40],1930 nM
same,TGI,[40],3640 nM
same,GI50,[41],1860 nM
same,TGI,[41],3730 nM
same,GI50,[42],1670 nM
same,TGI,[42],3320 nM
same,GI50,[43],1820 nM
same,TGI,[43],3400 nM
same,GI50,[44],2150 nM
same,TGI,[44],4670 nM
same,GI50,[45],2020 nM
same,TGI,[45],3600 nM
same,GI50,[46],1630 nM
same,TGI,[46],2980 nM
same,GI50,[47],1730 nM
same,TGI,[47],3290 nM
same,GI50,[48],1780 nM
same,TGI,[48],3170 nM
same,GI50,[49],2860 nM
same,TGI,[49],7290 nM
same,GI50,[50],1900 nM
same,TGI,[50],3430 nM
same,GI50,[51],1760 nM
same,TGI,[51],3240 nM
same,GI50,[52],1530 nM
same,TGI,[52],2910 nM
same,GI50,[53],1970 nM
same,TGI,[53],3400 nM
same,GI50,[54],1970 nM
same,TGI,[54],4020 nM
same,GI50,[55],1360 nM
same,TGI,[55],2980 nM
same,GI50,[56],1930 nM
same,TGI,[56],3500 nM
same,GI50,[57],1970 nM
same,TGI,[57],3500 nM
same,GI50,[58],1790 nM
same,TGI,[58],3320 nM
